Experimental data as given in publication PMC6801902, “Directed Evolution of Clostridium thermocellum β-Glucosidase A Towards Enhanced Thermostability” (International Journal of Molecular Sciences, 2019).

What was measured:
[1] = target: C. thermocellum BglA (β-glucosidase A, Clo1313_2020) (Acetivibrio thermocellus, UniProt P26208); experiment: continuous p-nitrophenol release at OD405, nonlinear fit (GraphPad Prism); assay type: biochemical; settings: 50 mM citrate buffer pH 6.1, 60 °C, 0-25 mM pNPG, 13 nM enzyme; read-out: Wild Type
Description: (§1) continuous p-nitrophenol release at OD405, nonlinear fit (GraphPad Prism) on C. thermocellum BglA (β-glucosidase A, Clo1313_2020)

[2] = target: C. thermocellum BglA (β-glucosidase A, Clo1313_2020) (Acetivibrio thermocellus, UniProt P26208, A17S/K268N, form not given); experiment: as above; assay type: biochemical; settings: 50 mM citrate buffer pH 6.1, 60 °C, 0-25 mM pNPG, 13 nM enzyme; thermostable mutant Mut 1
Description: as §1

C. thermocellum BglA (β-glucosidase A, Clo1313_2020) (Acetivibrio thermocellus, UniProt P26208), sequence (P26208 whole entry): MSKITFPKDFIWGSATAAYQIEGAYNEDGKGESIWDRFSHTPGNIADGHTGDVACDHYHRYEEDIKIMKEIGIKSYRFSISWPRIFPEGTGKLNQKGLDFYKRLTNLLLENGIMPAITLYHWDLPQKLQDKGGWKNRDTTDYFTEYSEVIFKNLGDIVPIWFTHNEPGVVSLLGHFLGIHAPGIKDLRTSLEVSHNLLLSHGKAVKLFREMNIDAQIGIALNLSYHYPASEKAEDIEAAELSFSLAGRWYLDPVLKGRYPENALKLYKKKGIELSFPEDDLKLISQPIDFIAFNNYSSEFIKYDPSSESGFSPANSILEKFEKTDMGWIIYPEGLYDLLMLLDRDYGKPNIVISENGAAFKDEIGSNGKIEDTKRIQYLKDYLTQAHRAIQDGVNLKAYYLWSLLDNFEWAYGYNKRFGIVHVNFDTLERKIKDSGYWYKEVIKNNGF
C. thermocellum BglA (β-glucosidase A, Clo1313_2020) (Acetivibrio thermocellus, UniProt P26208, A17S/K268N, form not given), sequence (P26208 whole entry A17S/K268N, form open): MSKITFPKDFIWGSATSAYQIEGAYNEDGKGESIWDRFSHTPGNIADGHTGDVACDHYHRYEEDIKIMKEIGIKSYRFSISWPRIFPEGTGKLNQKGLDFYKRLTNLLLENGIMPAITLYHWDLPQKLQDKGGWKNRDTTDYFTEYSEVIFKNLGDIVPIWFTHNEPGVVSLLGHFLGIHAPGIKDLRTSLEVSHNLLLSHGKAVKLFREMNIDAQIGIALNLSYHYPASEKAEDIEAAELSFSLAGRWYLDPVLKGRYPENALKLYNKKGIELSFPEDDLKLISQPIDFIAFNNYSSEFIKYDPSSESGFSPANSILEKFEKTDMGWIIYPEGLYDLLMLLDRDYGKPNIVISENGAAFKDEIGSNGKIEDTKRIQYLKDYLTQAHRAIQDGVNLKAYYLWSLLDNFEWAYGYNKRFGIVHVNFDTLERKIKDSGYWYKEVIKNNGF

Km [1]: 6.7 ± 1.11 mM
Km [2]: 5 ± 0.59 mM
Structure (SMILES): O=[N+]([O-])c1ccc(O[C@@H]2O[C@H](CO)[C@@H](O)[C@H](O)[C@H]2O)cc1 [pNPG, p-nitrophenyl-β-D-glucopyranoside]
